In patent US6825180B2, “Pyridopyrimidine compounds and their uses” (Cell Therapeutics, Inc., priority 2001, dated 2004):
Several values for one entry are separate records, joined by “and”; a condition that tells them apart may be missing. Identical values can stand only once. Counter-ions that a name gives are not always drawn.

Assays:
IL-12 signaling [1] = assay: IL-12 dependent in vitro T-helper cell (Th1) differentiation assay; format: cell-based; conditions: inhibition of IL-12 induced Th1 differentiation as defined by IFN-γ production upon secondary stimulation with anti-CD3 alone, splenic T cells, seven days culture
Procedure: This example illustrates the inventive compounds' ability to suppress Th1 differentiation in vitro by blocking IL-12 signaling. The compounds from Examples 1, 2, 6, and 7 were tested in an IL-12 dependent in vitro T-helper cell differentiation assay as described in LeGross et al., J. Exp. Med., 172:921-929 (1990). Recombinant IL-12 was used to induce Th1 differentiation. Splenic T cells were purified utilizing the antibodies RA3-3A1/6.1 (anti-B220), J11d and MAR18.5 (anti-rat kappa chain) to deplete the B cells by magnetic bead separation, as described in Coon et al, J. Immuno., 163:6567-6574 (1989). Splenic T cells were stimulated at 5×10^5/ml with insoluble anti-CD3 alone (145-2C11, Pharmingen, San Diego, Calif.), or anti-CD3 and 5 U/ml IL-12, with and without each inventive compound. After seven days, equal numbers of viable cells were restimulated for 24 hours with anti-CD3 without the inventive compounds, and the supernatants were collected and assayed for IFN—γ production. IFN-γ and IL-4 levels were measured by ELISA test specific for IFN-γ and IL-4.
Th1 differentiation was induced by culturing anti-CD3 stimulated T cells in the presence of exogenous IL-12. […] It was observed that the presence of the tested compounds during T cell activation inhibited Th1 differentiation, which had been enhanced by the addition of exogenous IL-12. The values in the “IC50 μM” column were determined by measuring the inhibition of IL-12 induced Th1 differentiation as defined by IFN-γ production upon secondary stimulation with anti-CD3 alone. None of the compounds affected the viability or recovery of T cells after one week of culture.

IL-12 signaling [2] = assay: Modified acute assay; format: cell-based; conditions: T-cell, 72 h, purified splenic T cells, anti-CD3 or lectin stimulation, Interferon-γ by ELISA
Procedure: The compounds of Examples 3-10 were tested in a modified acute assay which is used to screen for compounds that perturb IL-12 signaling. The assay measures the biological effects of compounds on IL-12 signaling during the differentiation of T1 responses rather than the outcome of differentiation, as measured using a T1 Differentiation Assay. Purified splenic T cells were stimulated either by crosslinking their T cell receptors with immobilized anti-CD3 antibody or by binding with a soluble lectin (e.g. Conconavalin A). The cells were incubated for 72 hours after which time supernatants are collected and relative Interferon-γ amounts determined by ELISA. The Modified Acute Assay measured a directed IL-12 response derived from a population of cells in a variety of activation states and can be thought of as a more stochastic response.

Row | IC50 (IL-12 signaling [1]; T-cell, 168 h) [µM] | IC50 (IL-12 signaling [1]) | IC50 (IL-12 signaling [2]) [µM] | IC50 (IL-12 signaling [1]; Acetic Acid Salt) [µM] | SMILES
1 | 19 | 24 µM and 28 µM | – | – | Cc1cc(=O)c2c(=O)n(CCCC[C@@H](C)O)c(=O)n(C)c2[nH]1 [Example 1, (R)-1,7-Dimethyl-3-(5-hydroxyhexyl)pyrido[2,3-d]pyrimidine-2,4,5(1H,3H,8H)-trione]
2 | 7 | – | – | – | CO[C@H](C)CCCCn1c(=O)c2c(=O)cc(C)[nH]c2n(C)c1=O [Example 2, (R)-1,7-Dimethyl-3-(5-methoxyhexyl)pyrido[2,3-d]pyrimidine-2,4,5(1H,3H,8H)-trione]
3 | – | – | < 10 | – | CNc1cc(C)nc2c1c(=O)n(CCCC[C@@H](C)O)c(=O)n2C [Example 3, (R)-1,7-Dimethyl-3-(5-hydroxyhexyl)-5-(N-methylamino)pyrido[2,3-d]pyrimidine-2,4(1H,3H)-dione]
4 | – | – | 8 | – | Cc1cc(=O)c2c(=O)n(CCCC[C@@H](C)O)c(=O)n(C)c2n1Cc1ccccc1 [Example 5, (R)-8-Benzyl-1,7-dimethyl-3-(5-hydroxyhexyl)pyrido[2,3-d]pyrimidine-2,4,5(1H,3H,8H)-trione]
5 | 14 | – | 9 | 16 | Cc1cc(=O)c2c(=O)n(CCCC[C@@H](C)N(C)C)c(=O)n(C)c2[nH]1 [Example 6, (R)-1,7-Dimethyl-3-(5-(N,N-dimethylamino)hexyl)pyrido[2,3-d]pyrimidine-2,4,5(1H,3H,8H)-trione, Acetic Acid Salt]
6 | > 40 | – | 26 | – | Cc1cc(N(C)C)c2c(=O)n(CCCC[C@@H](C)N(C)C)c(=O)n(C)c2n1 [Example 7, (R)-1,7-Dimethyl-5-(N,N-dimethylamino)-3-(5-(N,N-dimethylamino)hexyl)pyrido[2,3-d]pyrimidine-2,4(1H,3H)dione]
7 | – | – | 33 | – | Cc1cc(C)c2c(=O)n(CCCC[C@@H](C)O)c(=O)n(C)c2n1 [Example 8, (R)-3-(5-Hydroxyhexyl)-1,5,7-trimethylpyrido[2,3-d]pyrimidine-2,4(1H,3H)-dione]
8 | – | – | > 40 | – | Cc1cc(=O)[nH]c2c1c(=O)n(CCCC[C@@H](C)O)c(=O)n2C [Example 9, (R)-1,5-Dimethyl 3-(5-hydroxyhexyl)pyrido[2,3-d]pyrimidine-2,4,7(1H,3H,8H)-trione]
9 | – | – | 6 | – | Cc1cc(N(C)C)nc2c1c(=O)n(CCCC[C@@H](C)O)c(=O)n2C [Example 10, (R)-1,5-Dimethyl-7-(N,N-dimethylamino)-3-(5-hydroxyhexyl)-2,4-pyrido[2,3-d]pyrimidine-2,4(1H,3H)-dione]
